From patent US10513521B2, “Compositions and methods for inhibiting BMP” (The Brigham and Women's Hospital, Inc., priority 2014, dated 2019) come the findings set out here.

In assay [1] the target is T1, ALK1 (Bos taurus, UniProt A4FUX2).
T1 construct: The BAOEC cell line was employed for the measurement of ALK1 activity using BMP9 as the agonist; host or cells: BAOEC (bovine aortic endothelial cells)
T1 sequence (A4FUX2 23-503): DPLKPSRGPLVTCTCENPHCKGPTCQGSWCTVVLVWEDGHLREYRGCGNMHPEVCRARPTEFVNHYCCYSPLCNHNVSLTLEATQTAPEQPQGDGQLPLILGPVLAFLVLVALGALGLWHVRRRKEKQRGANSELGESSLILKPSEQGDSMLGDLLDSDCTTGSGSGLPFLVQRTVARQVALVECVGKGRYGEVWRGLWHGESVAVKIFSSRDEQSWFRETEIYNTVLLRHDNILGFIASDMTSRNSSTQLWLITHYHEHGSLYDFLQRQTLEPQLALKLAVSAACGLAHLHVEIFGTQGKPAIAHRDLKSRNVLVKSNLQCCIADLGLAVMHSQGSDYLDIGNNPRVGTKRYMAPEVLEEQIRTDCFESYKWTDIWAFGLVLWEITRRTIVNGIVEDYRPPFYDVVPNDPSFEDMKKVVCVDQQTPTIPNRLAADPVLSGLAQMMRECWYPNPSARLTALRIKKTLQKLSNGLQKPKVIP
Description: In-cell Western ALK1 assay (BAOEC cells, BMP9 as agonist). It counts as cell-based, Bovine. The following applies: read-out: BMP9 ICW. An excerpt: 3. In-Cell Western ALK1 and ALK2 Assays in 384-Well Plate Format.
We also optimized cell-based In-cell Western assays for measurements of ALK1 and ALK2 activities that were used to determine compound activities in these two kinases. The cell lines and agonists used were same as described in above cell-based HTRF ALK1 and ALK2 assays. The initial cell plating and compound treatment were also same. The main difference is the detection of phosphorylation status of SMAD1. In t-cell Western assay, the cells were fixed and phosphorylation status of SMAD1 was detected by the ELISA instead of using the HTRF assay kit in above assay.
C2C12 cells and RPMI 1640 medium were obtained from ATCC (Manassas, Va.) and Bovine Aortic endothelial Cells (BAOEC) and epithelial defined growth medium were purchased from Genlantis (San Deigo, Calif.). HyClone Fetal Bovine Serum was obtained from GE healthcare life sciences (Logan, Utah). BMP6 and BMP9 were purchased from R&D System (R&D). Anti-P-SMAD 1/5/8 rabbit mAb and anti-rabbit IgG, HRP-Linked antibody were purchased from Cell Signaling Technology (Danvers, Mass.). BioFX Chemiluminescent Ultra-Sensitive HRP Microwell Substrate ECL Reagent was obtained from SurModics (Edina, Minn.). The compound plates and the white solid MB assay plates were from Greiner Bio-one (Monroe, N.C.).
Similarly as described in above HTRF cell-based assay, this assay was performed in 384 well plate format. C2C12 were grown in T225 flasks were sterilely washed with 1×PBS pre-starved with medium containing 0.1% FBS for 20 hours. Pre-starved cells were then plated in 384 well plate in the starvation medium (containing in 0.1% FBS). After 4 hours, compound dilutions in DMSO were added to the assay plate and incubated for 30 minutes. The assay plate was then added with BMP6 for C2C12 cells or BMP9 for BAOEC cells and incubated for 30 minutes.
Cells were fixed with 50 ul ice-cold methanol and incubated for 15 min after removing the supernatant. The methanol was removed and filled with 0.5% glutaraldehyde and incubated at room temperature for 15 min. The cells were washed in the plate washer with PBS and blocked with 2% BSA in PBS for 1 h at room temperature on the rotator. After removing the blocking reagent, the cells were incubated with the anti-p-SMAD1 antibody in 2% BSA in PBS for overnight at 4° C. on rotator. The cells were washed with PBS in the plate washer and incubated with HRP conjugated second antibody in 2% BSA in PBS for 1 hour at room temperature. After a cell wash with PBS, ECL detection reagent was added and the plate was read in the luminesce mode in the ViewLux plate reader.

Assay [2] has as its target ALK6 (Homo sapiens, UniProt O00238). Description: TR-FRET enzymatic ALK kinase assay, ALK6. (In TR-FRET formats the signal depends on donor and acceptor labels being close together.)
The target of assay [3] is ALK1 (Homo sapiens, UniProt P37023). Description: TR-FRET enzymatic ALK kinase assay, ALK1.
ALK1 (Homo sapiens, UniProt P37023), sequence (P37023 22-503): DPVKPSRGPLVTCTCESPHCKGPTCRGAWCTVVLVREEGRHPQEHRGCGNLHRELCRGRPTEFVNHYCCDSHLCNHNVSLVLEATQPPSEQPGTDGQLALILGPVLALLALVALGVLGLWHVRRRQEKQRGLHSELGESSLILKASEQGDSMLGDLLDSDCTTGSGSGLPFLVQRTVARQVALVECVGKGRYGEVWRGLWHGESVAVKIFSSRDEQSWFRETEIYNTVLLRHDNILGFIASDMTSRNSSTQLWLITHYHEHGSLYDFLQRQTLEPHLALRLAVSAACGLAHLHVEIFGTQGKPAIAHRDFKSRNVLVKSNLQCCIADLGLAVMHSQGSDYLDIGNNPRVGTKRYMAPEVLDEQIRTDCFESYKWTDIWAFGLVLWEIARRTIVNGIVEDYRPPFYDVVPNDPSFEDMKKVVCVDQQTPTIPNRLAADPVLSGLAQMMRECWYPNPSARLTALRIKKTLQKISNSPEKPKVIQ
Assay [4] deals with ALK3 (Homo sapiens, UniProt P36894). Briefly: TR-FRET enzymatic ALK kinase assay, ALK3.
ALK3, sequence (P36894 24-532): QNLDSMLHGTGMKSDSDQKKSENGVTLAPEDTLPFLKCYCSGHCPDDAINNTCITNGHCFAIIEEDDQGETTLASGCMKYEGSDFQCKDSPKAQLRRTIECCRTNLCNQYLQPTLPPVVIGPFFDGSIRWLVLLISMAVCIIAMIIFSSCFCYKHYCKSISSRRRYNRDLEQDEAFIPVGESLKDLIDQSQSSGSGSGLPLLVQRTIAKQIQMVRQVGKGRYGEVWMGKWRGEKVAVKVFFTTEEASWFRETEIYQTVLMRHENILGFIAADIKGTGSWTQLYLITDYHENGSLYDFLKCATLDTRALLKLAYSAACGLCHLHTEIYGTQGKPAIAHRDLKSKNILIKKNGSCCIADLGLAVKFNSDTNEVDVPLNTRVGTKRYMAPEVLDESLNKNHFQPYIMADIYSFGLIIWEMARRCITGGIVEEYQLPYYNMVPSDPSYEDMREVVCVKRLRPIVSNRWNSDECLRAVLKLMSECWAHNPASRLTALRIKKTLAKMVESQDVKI
The target of assay [5] is T2, ALK2 (Homo sapiens, UniProt Q04771).
T2 sequence (Q04771 21-509): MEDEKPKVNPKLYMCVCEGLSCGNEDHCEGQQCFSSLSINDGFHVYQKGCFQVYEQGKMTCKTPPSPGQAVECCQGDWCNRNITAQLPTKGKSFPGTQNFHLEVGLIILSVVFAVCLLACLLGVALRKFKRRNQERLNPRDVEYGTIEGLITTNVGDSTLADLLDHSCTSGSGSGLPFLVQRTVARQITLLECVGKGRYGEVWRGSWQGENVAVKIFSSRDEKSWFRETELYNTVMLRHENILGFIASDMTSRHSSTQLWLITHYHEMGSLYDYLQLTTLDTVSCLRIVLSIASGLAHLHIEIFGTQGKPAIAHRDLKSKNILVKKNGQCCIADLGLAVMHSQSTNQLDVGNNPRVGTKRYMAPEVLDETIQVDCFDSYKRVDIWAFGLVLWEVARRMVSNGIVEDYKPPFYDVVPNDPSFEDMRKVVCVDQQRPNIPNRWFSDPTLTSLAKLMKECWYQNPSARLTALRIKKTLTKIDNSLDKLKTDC
Description: TR-FRET enzymatic ALK kinase assay, ALK2.

For assay [6], the target named is T3, ALK4 (Homo sapiens, UniProt P36896).
T3 sequence (P36896 24-505): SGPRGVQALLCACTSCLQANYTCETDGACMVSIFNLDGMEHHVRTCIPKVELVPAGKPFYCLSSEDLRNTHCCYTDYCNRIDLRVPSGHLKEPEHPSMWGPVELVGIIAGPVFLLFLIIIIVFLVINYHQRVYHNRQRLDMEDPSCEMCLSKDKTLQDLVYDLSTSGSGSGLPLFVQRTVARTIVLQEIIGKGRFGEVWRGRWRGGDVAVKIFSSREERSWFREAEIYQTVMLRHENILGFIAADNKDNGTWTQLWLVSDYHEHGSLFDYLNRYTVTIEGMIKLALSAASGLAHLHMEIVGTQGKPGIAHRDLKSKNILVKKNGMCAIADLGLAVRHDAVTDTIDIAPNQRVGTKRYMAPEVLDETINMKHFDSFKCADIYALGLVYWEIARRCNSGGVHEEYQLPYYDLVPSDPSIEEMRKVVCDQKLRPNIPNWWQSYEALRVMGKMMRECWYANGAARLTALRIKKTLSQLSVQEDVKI
Briefly: TR-FRET enzymatic ALK kinase assay, ALK4.

Several values for one entry are separate records, joined by “and”; a condition that tells them apart may be missing. Equal values may be shown once.

ALK6, sequence (O00238 14-502): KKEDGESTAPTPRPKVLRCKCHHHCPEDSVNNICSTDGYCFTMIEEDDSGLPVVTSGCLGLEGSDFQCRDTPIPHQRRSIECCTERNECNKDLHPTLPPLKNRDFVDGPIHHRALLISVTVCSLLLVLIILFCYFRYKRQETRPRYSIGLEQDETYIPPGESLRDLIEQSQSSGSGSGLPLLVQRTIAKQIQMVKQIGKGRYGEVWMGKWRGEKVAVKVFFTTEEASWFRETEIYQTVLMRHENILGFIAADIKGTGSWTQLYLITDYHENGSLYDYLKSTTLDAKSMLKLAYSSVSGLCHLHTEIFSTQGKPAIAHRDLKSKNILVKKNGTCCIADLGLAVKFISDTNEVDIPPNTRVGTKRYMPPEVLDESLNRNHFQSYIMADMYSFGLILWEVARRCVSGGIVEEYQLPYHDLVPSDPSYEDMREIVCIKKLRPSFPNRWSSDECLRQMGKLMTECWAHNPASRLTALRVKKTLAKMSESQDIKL

As for `C[C@@H]1CNC[C@H](C)N1c1ccc(-c2cnc3c(-c4cccc5c(C(N)=O)cccc45)cnn3c2)cc1` [Compound 10, 5-(6-(4-((2S,6R)-2,6-dimethylpiperazin-1-yl)phenyl)pyrazolo[1,5-a]pyrimidin-3-yl)-1-naphthamide], the IC50 in assay [1] was 42 nM and 53 nM and 66 nM and 78 nM and 91 nM and 28 nM and 49 nM and 51 nM; in assay [2], 34 nM; in assay [3] it was 5 nM; in assay [4], 18 nM; in assay [5], 8 nM; in assay [6] it was 1070 nM.
As for `N/C(=N/O)c1ccc(-c2cnn3cc(-c4ccc(N5CCNCC5)cc4)cnc23)c2ccccc12` [Compound 15, N′-hydroxy-4-(6-(4-(piperazin-1-yl)phenyl)pyrazolo[1,5-a]pyrimidin-3-yl)-1-naphthimidamide], the IC50 came out at 1500 nM in assay [1]; 12800 nM in assay [2]; 1480 nM in assay [3]; 1340 nM in assay [4]; 43 nM in assay [5]; 30400 nM in assay [6].
As to `CC(C)(CN1CCCCC1)Oc1ccc(-c2cnc3c(-c4cccc5c(C(N)=O)cccc45)cnn3c2)cc1` [Compound 18, 5-(6-(4-((2-methyl-1-(piperidin-1-yl)propan-2-yl)oxy)phenyl)pyrazolo[1,5-a]pyrimidin-3-yl)-1-naphthamide], the IC50 was 26 nM in assay [1]; 183 nM in assay [2]; 16 nM in assay [3]; 35 nM in assay [4]; 5 nM in assay [5]; 2340 nM in assay [6].
For `NS(=O)(=O)c1ccc(-c2cnn3cc(-c4ccc(CCN5CCCCC5)cc4)cnc23)c2ccccc12` [Compound 54, 4-(6-(4-(2-(piperidin-1-yl)ethyl)phenyl)pyrazolo[1,5-a]pyrimidin-3-yl)naphthalene-1-sulfonamide], the IC50 was over 10000 nM in assay [2]; 380 nM in assay [3]; over 10000 nM in assay [4]; 94 nM in assay [5]; over 10000 nM in assay [6].
As to `C[C@@H]1CNC[C@H](C)N1c1ccc(-c2cnc3c(-c4cccc(S(C)(=O)=O)c4)cnn3c2)cc1` [Compound 82, 6-(4-((2R,6S)-2,6-dimethylpiperazin-1-yl)phenyl)-3-(3-(methylsulfonyl)phenyl)pyrazolo[1,5-a]pyrimidine], the IC50 in assay [1] was 1.5 µM (2×) and 1 µM and 1.3 µM and 1.8 µM and 360 nM and 960 nM and 2 µM; in assay [2], 7900 nM; in assay [3], 30 nM; in assay [4] it was 540 nM; in assay [5], 12 nM; in assay [6], 3200 nM.
With `CC(O)c1cccc(-c2cnn3cc(-c4ccc(N5[C@H](C)CNC[C@@H]5C)cc4)cnc23)c1` (stereo partly drawn) [Compound 83, 1-(3-(6-(4-((2R,6S)-2,6-dimethylpiperazin-1-yl)phenyl)pyrazolo[5-a]pyrimidin-3-yl)phenyl)ethanol], the IC50 is 1400 nM and 1200 nM and 1500 nM and 1800 nM and 2600 nM and 690 nM and 770 nM and 1600 nM in assay [1]; 5400 nM in assay [2]; 57 nM in assay [3]; 520 nM in assay [4]; 12 nM in assay [5]; 4400 nM in assay [6].
Regarding `C[S+](=O)([O-])c1cccc(-c2cnn3cc(-c4ccc(OC5(CN6CCCCC6)COC5)cc4)cnc23)c1` [Compound 93, 3-(3-(methylsulfonyl)phenyl)-6-(4-((3-(piperidin-1-ylmethyl)oxetan-3-yl)oxy)phenyl)pyrazolo[1,5-a]pyrimidine], the IC50 was 3300 nM and 1400 nM and 3000 nM and 3800 nM and 3600 nM and 1200 nM and 1900 nM in assay [1]; 2900 nM in assay [2]; 100 nM in assay [3]; 1500 nM in assay [4]; 29 nM in assay [5]; over 10000 nM in assay [6].
Turning to `C[S+](=O)([O-])c1cccc(-c2cnn3cc(-c4ccc(OCCN5CCCCC5)cc4)cnc23)c1` [Compound 109], the IC50 in assay [2] is over 10000 nM; in assay [3], 390 nM; in assay [4], 1500 nM; in assay [5], 95 nM; in assay [6], over 10000 nM.
Regarding `CC(C)S(=O)(=O)c1cccc(-c2cnn3cc(-c4ccc(CCN5CCCCC5)cc4)cnc23)c1` [Compound 113, 3-(3-(isopropylsulfonyl)phenyl)-6-(4-(2-(piperidin-1-yl)ethyl)phenyl)pyrazolo[1,5-a]pyrimidine], the IC50 is 9200 nM in assay [2]; 500 nM in assay [3]; 4600 nM in assay [4]; 94 nM in assay [5]; over 10000 nM in assay [6].
Take `CC(C)S(=O)(=O)c1cccc(-c2cnn3cc(-c4ccc(N5[C@H](C)CNC[C@@H]5C)cc4)cnc23)c1` [Compound 114, 6-(4-((2R,6S)-2,6-dimethylpiperazin-1-yl)phenyl)-3-(3-(isopropylsulfonyl)phenyl)pyrazolo[1,5-a]pyrimidine]: the IC50 worked out at 6300 nM in assay [2]; 67 nM in assay [3]; 1100 nM in assay [4]; 32 nM in assay [5]; 4100 nM in assay [6].
On the same counts, the results for `CS(=O)(=O)c1cccc(-c2cnn3cc(-c4ccc(CN5CCCCC5)cc4)cnc23)c1` [Compound 123, 3-(3-(methylsulfonyl)phenyl)-6-(4-(piperidin-1-ylmethyl)phenyl)pyrazolo[1,5-a]pyrimidine] are over 10000 nM, 210 nM, over 10000 nM, 56 nM and over 10000 nM.
With `CC(O)c1cccc(-c2cnn3cc(-c4ccc(OC5(CN6CCCCC6)CC5)cc4)cnc23)c1` (stereo not drawn) [Compound 143, 1-(3-(6-(4-(1-(piperidin-1-ylmethyl)cyclopropoxy)phenyl)pyrazolo[1,5-a]pyrimidin-3-yl)phenyl)ethanol], the IC50 is 9600 nM in assay [2]; 330 nM in assay [3]; 1400 nM in assay [4]; 47 nM in assay [5]; over 10000 nM in assay [6].
